According to patent US20230121721A1, “MONOACYLGLYCEROL LIPASE INHIBITORS” (STICHTING HET NEDERLANDS KANKER INSTITUUT - ANTONI VAN …, priority 2020, published 2023):

Biological target: T1, hMAGL (MAGL-overexpressing membrane preparations from transiently transfected HEK293T cells) (Homo sapiens, UniProt Q99685)
T1 construct: expressed in transfected cells; host or cells: HEK293T (transient transfection), membrane preparations
T1 sequence (Q99685 1-303): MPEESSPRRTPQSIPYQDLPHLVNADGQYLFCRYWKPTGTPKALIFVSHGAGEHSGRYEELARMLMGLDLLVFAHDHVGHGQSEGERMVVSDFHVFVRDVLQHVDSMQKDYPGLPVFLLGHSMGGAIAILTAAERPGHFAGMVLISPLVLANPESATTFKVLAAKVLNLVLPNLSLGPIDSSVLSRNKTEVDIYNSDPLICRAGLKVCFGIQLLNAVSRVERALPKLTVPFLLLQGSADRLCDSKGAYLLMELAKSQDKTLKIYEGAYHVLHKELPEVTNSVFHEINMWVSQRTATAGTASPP
Assay: MAGL activity assay (2-AG hydrolysis, glycerol coupled to Amplifu Red fluorescence)
Format: biochemical
Conditions: hMAGL-overexpressing HEK293T membranes, 25 μM 2-AG substrate, 20 min. inhibitor incubation
Description: The MAGL activity assay is based on the production of glycerol from 2-arachidonoylglycerol (2-AG) hydrolysis by MAGL-overexpressing membrane preparations from transiently transfected HEK293T cells, as previously reported in van der Wel T et al., “A natural substrate-based fluorescence assay for inhibitor screening on diacylglycerol lipase”, J Lipid Res., 2015, 56(4), 927-35. The produced glycerol is coupled to the oxidation of commercially available Amplifu™ Red (Sigma-Aldrich Chemie N.V., Zwijndrecht, Netherlands) via a multi-enzyme cascade, resulting in a fluorescent signal from the dye resorufin.
Standard assays were performed in HEMNB buffer (50 mM HEPES pH 7.4, 1 mM EDTA, 5 mM MgCl2, 100 mM NaCl, 0.5% (w/v) BSA) in black, flat bottom 96-wells plates. Final protein concentration of membrane preparations from overexpressing hMAGL HEK293T cells was 1.5 μg/mL (0.3 μg per well). Inhibitors were added from 40× concentrated DMSO stocks. […] Final assay concentrations: 0.2 U/mL GK, GPO and HRP, 0.125 mM ATP, 10 μM Amplifu™ Red, 25 μM 2-AG, 5% DMSO, 0.5% ACN in a total volume of 200 μL.
For IC50 determination, the MAGL-overexpressing membranes were incubated with different inhibitor concentrations. Slopes of corrected fluorescence in time were determined in the linear interval of t=10 to t=35 min and then scaled to the corrected positive control of hMAGL-overexpressing membranes treated with vehicle (DMSO) as a 100% activity reference point. The data was exported to GraphPad Prism 5.0 and analysed in a non-linear dose-response analysis with variable slope.

IC50 | SMILES
> 10000 nM | C[C@H]1[C@H](C)N(c2cccc(Cl)c2)CCN1C(=O)c1ccc([S+]([O-])CC(=O)c2ccc(F)c(C(F)(F)F)c2)c(Cl)c1 (mixture of isomers) [Example 92, (±) 2-((2-Chloro-4-(4-(3-chlorophenyl)-trans-2,3-dimethylpiperazine-1-carbonyl)phenyl)sulfinyl)-1-(4-fluoro-3-(trifluoromethyl)phenyl)ethan-1-one]
575 nM | C[C@H]1[C@H](C)N(c2cccc(Cl)c2)CCN1C(=O)c1ccc([S+]([O-])CC(=O)c2cccc(F)c2F)c(Cl)c1 (mixture of isomers) [Example 93, (±) 2-((2-Chloro-4-(4-(3-chlorophenyl)-trans-2,3-dimethylpiperazine-1-carbonyl)phenyl)sulfinyl)-1-(2,3-difluorophenyl)ethan-1-one]
759 nM | C[C@H]1[C@H](C)N(c2cccc(Cl)c2)CCN1C(=O)c1ccc([S+]([O-])CC(=O)c2ccc(F)c(F)c2)c(Cl)c1 (mixture of isomers) [Example 94, (±) 2-((2-Chloro-4-(4-(3-chlorophenyl)-trans-2,3-dimethylpiperazine-1-carbonyl)phenyl)sulfinyl)-1-(3,4-difluorophenyl)ethan-1-one]
1620 nM | C[C@H]1[C@H](C)N(c2cccc(Cl)c2)CCN1C(=O)c1ccc([S+]([O-])CC(=O)c2ccccc2F)c(Cl)c1 (mixture of isomers) [Example 95, (±) 2-((2-Chloro-4-(4-(3-chlorophenyl)-trans-2,3-dimethylpiperazine-1-carbonyl)phenyl)sulfinyl)-1-(2-fluorophenyl)ethan-1-one]
708 nM | C[C@H]1[C@H](C)N(c2cccc(Cl)c2)CCN1C(=O)c1ccc([S+]([O-])CC(=O)c2ccnnc2)c(Cl)c1 (mixture of isomers) [Example 96, (±) 2-((2-Chloro-4-(4-(3-chlorophenyl)-trans-2,3-dimethylpiperazine-1-carbonyl)phenyl)sulfinyl)-1-(pyridazin-4-yl)ethan-1-one]
234 nM | C[C@H]1[C@H](C)N(c2cccc(Cl)c2)CCN1C(=O)c1ccc([S+]([O-])CC(=O)c2ccc(F)cc2F)c(Cl)c1 (mixture of isomers) [Example 97, (±) 2-((2-Chloro-4-(4-(3-chlorophenyl)-trans-2,3-dimethylpiperazine-1-carbonyl)phenyl)sulfinyl)-1-(2,4-difluorophenyl)ethan-1-one]
91.2 nM | C[C@H]1[C@H](C)N(c2cccc(Cl)c2)CCN1C(=O)c1ccc([S+]([O-])CC(=O)c2ccc(C#N)cc2)c(Cl)c1 (mixture of isomers) [Example 99, (±) 4-(2-((2-Chloro-4-(4-(3-chlorophenyl)-trans-2,3-dimethyl-piperazine-1-carbonyl)phenyl)sulfinyl)acetyl)benzonitrile]
87.1 nM | C[C@H]1[C@H](C)N(c2cccc(Cl)c2)CCN1C(=O)c1ccc([S+]([O-])CC(=O)c2ccncn2)c(Cl)c1 (mixture of isomers) [Example 100, (±) 2-((2-Chloro-4-(4-(3-chlorophenyl)-trans-2,3-dimethylpiperazine-1-carbonyl)phenyl)sulfinyl)-1-(pyrimidin-4-yl)ethan-1-one]
1100 nM | C[C@H]1[C@H](C)N(c2cccc(Cl)c2)CCN1C(=O)c1ccc([S+]([O-])CC(=O)c2cnccn2)c(Cl)c1 (mixture of isomers) [Example 101, (±) 2-((2-Chloro-4-(4-(3-chlorophenyl)-trans-2,3-dimethylpiperazine-1-carbonyl)phenyl)sulfinyl)-1-(pyrazin-2-yl)ethan-1-one]
28.2 nM | C[C@H]1[C@H](C)N(c2cccc(Cl)c2)CCN1C(=O)c1ccc([S+]([O-])CC(=O)c2ncccn2)c(Cl)c1 (mixture of isomers) [Example 102, (±) 2-((2-Chloro-4-(4-(3-chlorophenyl)-trans-2,3-dimethylpiperazine-1-carbonyl)phenyl)sulfinyl)-1-(pyrimidin-2-yl)ethan-1-one]
2950 nM | C[C@H]1[C@H](C)N(c2cccc(Cl)c2)CCN1C(=O)c1ccc([S+]([O-])CC(=O)c2ccc(C(F)(F)F)cc2)c(Cl)c1 (mixture of isomers) [Example 103, (±) 2-((2-Chloro-4-(4-(3-chlorophenyl)-trans-2,3-dimethylpiperazine-1-carbonyl)phenyl)sulfinyl)-1-(4-(trifluoromethyl)phenyl)ethan-1-one]
2290 nM | C[C@H]1[C@H](C)N(c2cccc(Cl)c2)CCN1C(=O)c1ccc([S+]([O-])CC(=O)c2ccccc2)c(Cl)c1 (mixture of isomers) [Example 104, (±) 2-((2-Chloro-4-(4-(3-chlorophenyl)-trans-2,3-dimethylpiperazine-1-carbonyl)phenyl)sulfinyl)-1-phenylethan-1-one]
10 nM | C[C@H]1[C@H](C)N(c2cccc(Cl)c2)CCN1C(=O)c1ccc([S+]([O-])CC(=O)c2ccc(C#N)cn2)c(Cl)c1 (mixture of isomers) [Example 105, (±) 6-(2-((2-Chloro-4-(4-(3-chlorophenyl)-trans-2,3-dimethylpiperazine-1-carbonyl)phenyl)sulfinyl)acetyl)nicotinonitrile]

Further lines, the molecule ahead of its results:

SMILES | IC50
C[C@H]1[C@H](C)N(c2cc(Cl)ccn2)CCN1C(=O)c1ccc([S+]([O-])CC(=O)C(C)(F)F)c(Cl)c1 (mixture of isomers) [Example 83, (±) 1-((2-Chloro-4-(4-(4-chloropyridin-2-yl)-trans-2,3-dimethylpiperazine-1-carbonyl)phenyl)sulfinyl)-3,3-difluorobutan-2-one] | 3.39 nM
CCC(F)(F)C(=O)C[S+]([O-])c1ccc(C(=O)N2CCN(c3cc(Cl)ccn3)[C@@H](C)[C@@H]2C)cc1Cl (mixture of isomers) [Example 84, (±) 1-((2-Chloro-4-(4-(4-chloropyridin-2-yl)-trans-2,3-dimethylpiperazine-1-carbonyl)phenyl)sulfinyl)-3,3-difluoropentan-2-one] | 2.82 nM
C[C@H]1[C@H](C)N(c2cccc(Cl)c2)CCN1C(=O)c1ccc([S+]([O-])CC(=O)c2cccnc2)c(Cl)c1 (mixture of isomers) [Example 85, (±) 2-((2-Chloro-4-(4-(3-chlorophenyl)-trans-2,3-dimethylpiperazine-1-carbonyl)phenyl)sulfinyl)-1-(pyridin-3-yl)ethan-1-one] | 9770 nM
C[C@H]1[C@H](C)N(c2cccc(Cl)c2)CCN1C(=O)c1ccc([S+]([O-])CC(=O)c2ccc(F)cc2)c(Cl)c1 (mixture of isomers) [Example 86, (±) 2-((2-Chloro-4-(4-(3-chlorophenyl)-trans-2,3-dimethylpiperazine-1-carbonyl)phenyl)sulfinyl)-1-(4-fluorophenyl)ethan-1-one] | 1910 nM
C[C@H]1[C@H](C)N(c2cccc(Cl)c2)CCN1C(=O)c1ccc([S+]([O-])CC(=O)c2cccc(F)c2)c(Cl)c1 (mixture of isomers) [Example 87, (±) 2-((2-Chloro-4-(4-(3-chlorophenyl)-trans-2,3-dimethylpiperazine-1-carbonyl)phenyl)sulfinyl)-1-(3-fluorophenyl)ethan-1-one] | > 10000 nM
C[C@H]1[C@H](C)N(c2cccc(Cl)c2)CCN1C(=O)c1ccc([S+]([O-])CC(=O)c2cccnn2)c(Cl)c1 (mixture of isomers) [Example 88, (±) 2-((2-Chloro-4-(4-(3-chlorophenyl)-trans-2,3-dimethylpiperazine-1-carbonyl)phenyl)sulfinyl)-1-(pyridazin-3-yl)ethan-1-one] | 251 nM
C[C@H]1[C@H](C)N(c2cccc(Cl)c2)CCN1C(=O)c1ccc([S+]([O-])CC(=O)c2cc(F)cc(F)c2)c(Cl)c1 (mixture of isomers) [Example 89, (±) 2-((2-Chloro-4-(4-(3-chlorophenyl)-trans-2,3-dimethylpiperazine-1-carbonyl)phenyl)sulfinyl)-1-(3,5-difluorophenyl)ethan-1-one] | 2090 nM
C[C@H]1[C@H](C)N(c2cccc(Cl)c2)CCN1C(=O)c1ccc([S+]([O-])CC(=O)c2ccc(C(F)(F)F)nc2)c(Cl)c1 (mixture of isomers) [Example 90, (±) 2-((2-Chloro-4-(4-(3-chlorophenyl)-trans-2,3-dimethylpiperazine-1-carbonyl)phenyl)sulfinyl)-1-(6-(trifluoromethyl)pyridin-3-yl)ethan-1-one] | 813 nM
C[C@H]1[C@H](C)N(c2cccc(Cl)c2)CCN1C(=O)c1ccc([S+]([O-])CC(=O)c2ccc(Cl)c(C(F)(F)F)c2)c(Cl)c1 (mixture of isomers) [Example 91, (±) 1-(4-Chloro-3-(trifluoromethyl)phenyl)-2-((2-chloro-4-(4-(3-chlorophenyl)-trans-2,3-dimethyl-piperazine-1-carbonyl)-phenyl)sulfinyl)ethan-1-one] | > 10000 nM
